Measurements published in patent US12427155B2, “Treatment for tau-related diseases” (The Regents of the University of California, priority 2019, dated 2025).
Entries after “also recorded” stand apart in the source; their conditions may differ. Like-named read-outs stand apart in the source and are kept apart here. Where a SMILES comes first, the peptide text is derived from it. The star is where a group is joined. Cbz = O=C(OCc1ccccc1)*

Tests used:
pThr231Tau/tTau [1] = test: pThr231Tau/tTau ratio (ELISA) in APP^dp iPSC-derived FAD neurons; type: cell-based, human; conditions: for pThr231Tau/tTau, dosage effect: dose range; for abrogation of the atorvastatin-induced decrease in pThr231Tau/tTau ratio: 3 days
APP^dp1-6 neurons [2] = test: lipid analysis of APP^dp1-6 neurons; type: cell-based, human; conditions: 3 days
APP^dp1-6 neurons [3] = test: cell viability of APP^dp1-6 iPSC-derived neurons; conditions: dose range
pThr231Tau/tTau [4] = test: pThr231Tau/tTau in non-demented control (NDC) neurons; conditions: NDC neurons with two copies of APP
pTau = test: immunofluorescence of pTau epitopes in APP^dp1-6 neurons; type: cell-based, human; conditions: 10 μM, 5 days
Text: Vehicle alone controls (DMSO) are shown in black. […] SER, selective estrogen […] (n=4). […] NF—H, neurofilament H, axonal marker. The pThr231Tau antibody used is TG3, which detects a conformational epitope of pThr231Tau. Scale bar, 100 μm.

Aβ42 secretion = test: secreted Aβ42 in APP-Δcholesterol neurons; type: cell-based, human; conditions: APP E693A and F691A+E693A neurons, 10 μM, 3 days
Text: FIGS. 4A-4F show regulation of Aβ by CE Is Mediated by a Cholesterol Binding Domain in APP. […] Green indicates amino acid sequence. Red arrow indicates CRISPR/Cas9 cut site. […] Two E693A (line 3D9 and 2B2) and one F691A+E693A line (line D12) were generated, as well as two non-gene-edited, but clonally expanded, WT lines (B10 and B11). FIGS. 4D-4F show measurements made using APP-Δcholesterol neurons with the following genotypes: WT (average from 2 independent lines), E693A (2 independent lines), and F691A+E693A (1 line) (mean±SEM, n R 3 per line). (D) Relative secreted Ab42 levels in conditioned media from purified CD184^−, CD44^−, and CD24^+ neurons (mean±SEM, n≥3 per line).

iPSC-derived astrocytes = tested on: iPSC-derived astrocytes
Text: Scale bar, 10 μm. […] Astrocytic viability (blue line) was plotted against results from FIGS. 1D and S1A for statins (neuronal viability and pThr231Tau/Tau ratio).

APP^dp1-6 neurons [5] = tested on: APP^dp1-6 neurons
Tau (PHF-1) = test: PHF-1 (Tau) staining of 4RTau-tg mouse brain sections; type: in vivo; conditions: 4R Tau-tg mice, 25 mg/kg daily oral gavage, 3 months
Method: FIGS. 7A-7D show PHF-1 staining of 4RTau-tg mouse sections. […] (FIG. 7A) Representative sections stained for PHF-1. Low power images show areas of enlargements where measurements were obtained. (FIGS. 7B-7D) Sections were analyzed with video bright field microscopy and immunoreactivity was quantified as corrected optical density. * indicated p<0.05 compared to vehicle treated 4RTau-tg mice, ** indicates p<0.005 compared to vehicle treated 4RTau-tg mice. Scale bar=200 μm in low power images and 20 μm in higher power images.
Following treatment, mice were sacrificed, brains removed and sectioned along the sagittal axis with half flash frozen and half drop fixed in 4% PFA. Fixed brains were sectioned with a vibratome (40 μm) and stained for GFAP, PHF1 (Tau) or Synaptophysin. Sections were imaged with a Leica microscope with a digital camera and analyzed with ImageJ for optical density (GFAP, Synaptophysin) or % area of neuropil (PHF1). Statistics were conducted with Prism6 using ANOVA one way analysis with Tukey-Kramer post hoc analysis.

[6] = human, in vivo; cited from earlier work
[7] = lower concentrations that sufficed to alter brain cholesterol metabolism; Mast et al., 2017b; cited from earlier work
[8] = APP^dp1-6 neurons, 10 μM (FIG. 2C)
[9] = 0.5 mM single dose at t=0, with atorvastatin 10 μM, 5 days

C[C@@](O)(CCOP(=O)(O)OP(=O)(O)O)CC(=O)O [MVA-5PP, mevalonate-5-pyrophosphate]
rescue of the effect of atorvastatin on pThr231Tau/tTau (pThr231Tau/tTau [1]): rescued

O=S(=O)(c1ccccc1)N(CC(F)(F)F)c1ccc(C(O)(C(F)(F)F)C(F)(F)F)cc1 [T091317]
24-hydroxycholesterol in media (APP^dp1-6 neurons [2]; 10 μM): unaltered | desmosterol levels (APP^dp1-6 neurons [2]; 10 μM): decreased | pThr231Tau/tTau (pThr231Tau/tTau [1]; [8]): reduced

CC(C)c1nc(N(C)S(C)(=O)=O)nc(-c2ccc(F)cc2)c1/C=C/[C@@H](O)C[C@@H](O)CC(=O)O [rosuvastatin]
pThr231Tau/tTau, confirmed non-toxic screening hit (pThr231Tau/tTau [1]; APP^dp1-6 neurons, 5 μM, 5 days): hit-list

CC[C@H](C)C(=O)O[C@H]1C[C@@H](C)C=C2C=C[C@H](C)[C@H](CC[C@@H]3C[C@@H](O)CC(=O)O3)[C@H]21 [lovastatin]
cell viability or neuronal number (APP^dp1-6 neurons [3]): minor effects | pThr231Tau/tTau, dosage effect (pThr231Tau/tTau [1]; APP^dp1-6 neurons): reduced pThr231Tau/tTau in a dose-dependent manner

CC(C)c1cc(C(C)C)c(CC(=O)NS(=O)(=O)Oc2c(C(C)C)cccc2C(C)C)c(C(C)C)c1 [avasimibe]
pThr231Tau/tTau (pThr231Tau/tTau [4]): reduced | pThr231Tau/tTau (pThr231Tau/tTau [1]; APP^dp1-6 neurons, 10 μM, 5-day treatment (FIG. 2G)): reduced

CC(C)C[C@@H](C=O)NC(=O)[C@H](CC(C)C)NC(=O)[C@H](CC(C)C)NC(=O)OCc1ccccc1 [MG132] (Cbz-Leu-Leu-Leu-aldehyde)
abrogation of the atorvastatin-induced decrease in pThr231Tau/tTau ratio (pThr231Tau/tTau [1]; 5 μM co-treated with atorvastatin 10 μM): abrogated the decrease

CC(C)c1c(C(=O)Nc2ccccc2)c(-c2ccccc2)c(-c2ccc(F)cc2)n1CC[C@@H](O)C[C@@H](O)CC(=O)O [atorvastatin]
cell viability or neuronal number (APP^dp1-6 neurons [3]): slightly cytotoxic at higher concentrations | 7DHC levels (APP^dp1-6 neurons [2]; 10 μM): trended towards decreased | 24-hydroxycholesterol in media (APP^dp1-6 neurons [2]; 10 μM): unaltered | desmosterol levels (APP^dp1-6 neurons [2]; 10 μM): reduced | pS202/T205Tau by immunofluorescence (pTau): reduced | pS396/S404Tau by immunofluorescence (pTau): reduced | pThr231 phosphorylation-dependent conformational Tau epitope (TG3) by immunofluorescence (pTau): reduced | Aβ42 secretion (Aβ42 secretion): did not affect | astrocyte viability (iPSC-derived astrocytes): induced major astrocyte cell-death | pThr231Tau/tTau (pThr231Tau/tTau [4]): reduced | pThr231Tau/Tau after removal of compound (pThr231Tau/tTau [1]; removal after five days of treatment): recovery

CSc1cc(C)nc(SC)c1NC(=O)CN1CCN(CCSc2nc3ccccc3[nH]2)CC1 [K604]
pThr231Tau/tTau (pThr231Tau/tTau [4]): reduced | pThr231Tau/tTau (pThr231Tau/tTau [1]; APP^dp1-6 neurons, 25 μM, 5-day treatment (FIG. 2G)): reduced

C=C1[C@@H](O)[C@@H]2O[C@]3(CC[C@H](/C=C/[C@@H](C)[C@@H]4CC(C)=C[C@@]5(O[C@H](C[C@@](C)(O)C(=O)O)CC[C@H]5O)O4)O3)CC[C@H]2O[C@@H]1[C@@H](O)C[C@H](C)[C@H]1O[C@@]2(CCCCO2)CC[C@H]1C [okadaic acid]
abrogation of the atorvastatin-induced decrease in pThr231Tau/tTau ratio (pThr231Tau/tTau [1]; 1.25 nM co-treated with atorvastatin 10 μM): Only proteasomal inhibition abrogated the decrease

CC[C@H](C)C(=O)O[C@H]1CCC=C2C=C[C@H](C)[C@H](CC[C@@H]3C[C@@H](O)CC(=O)O3)[C@H]21 [mevastatin]
cell viability or neuronal number (APP^dp1-6 neurons [5]): minor effects | pThr231Tau/tTau, dosage effect (pThr231Tau/tTau [1]; APP^dp1-6 neurons): reduced pThr231Tau/tTau in a dose-dependent manner

mevalonate [MVA]
rescue of the effect of atorvastatin on pThr231Tau/tTau (pThr231Tau/tTau [1]; [9]): rescued

CC(C)C(O)CC[C@@H](C)[C@H]1CC[C@H]2[C@@H]3CC=C4C[C@@H](O)CC[C@]4(C)[C@H]3CC[C@]12C (some centres unmarked) [24-hydroxycholesterol]
pThr231Tau/tTau (pThr231Tau/tTau [1]; [8]): reduced

COc1ccc2cc3[n+](cc2c1OC)CCc1cc2c(cc1-3)OCO2 [Berberine]
Tau accumulation in the CA1 region of the hippocampus (Tau (PHF-1)): no change

O=C1Nc2ccc(Cl)cc2[C@@](C#CC2CC2)(C(F)(F)F)O1 [efavirenz, (S)-6-chloro-(cyclopropylethynyl)-1,4-dihydro-4-(trifluoromethyl)-2H-3,1-benzoxazin-2-one]
adverse effects in HIV patients [6]: significant adverse effects that include neurotoxicity | astrocyte viability (iPSC-derived astrocytes): did not affect astrocyte viability even at high doses | adverse effects in mice [7]: Major adverse effects were not observed

Cc1cc(SCc2sc(-c3ccc(C(F)(F)F)cc3)nc2C)ccc1OCC(=O)O [GW50156]
pThr231Tau/tTau (pThr231Tau/tTau [1]; [8]): did not decrease

Clc1ccccc1CNCC1CCC(CNCc2ccccc2Cl)CC1 (centres unmarked) [AY-9944]
7DHC levels (APP^dp1-6 neurons [2]; 5 μM): increased | 24-hydroxycholesterol in media (APP^dp1-6 neurons [2]; 5 μM): decreased | desmosterol levels (APP^dp1-6 neurons [2]; 5 μM): reduced | free cholesterol levels (APP^dp1-6 neurons [2]; 5 μM): reduced | pThr231Tau/tTau (pThr231Tau/tTau [1]; [8]): did significantly decrease; also recorded: minor effect

F/C(COc1ccc2c(c1)[nH]c1ccccc12)=C1/CN2CCC1CC2 [YM-53601]
pThr231Tau/tTau (pThr231Tau/tTau [1]; APP^dp1-6 neurons, 20 μM (FIG. 2C)): did significantly decrease

COC(=O)[C@H](CC(C)C)NC(=O)c1ccc(NC[C@@H](N)CS)cc1-c1cccc2ccccc12 [GGTI-298]
pThr231Tau/tTau (pThr231Tau/tTau [1]; [8]): did not significantly reduce

C[C@@](O)(CCOP(=O)(O)O)CC(=O)O [MVP, mevalonate-5-phosphate]
rescue of the effect of atorvastatin on pThr231Tau/tTau (pThr231Tau/tTau [1]; [9]): rescued
